Data published in patent US8269010B2, “3-amino-pyridine derivatives for the treatment of metabolic disorders” (Piramal Healthcare Limited, priority 2006, dated 2012).

Key:
[1] = test system: insulin resistant adipocytes (3T3 L1); test: In vitro model exhibiting insulin resistance (IR assay): 14C-2-deoxyglucose uptake; format: cell-based; conditions: glucose uptake; for fold induction at 10 µM: Mus musculus, dexamethasone-induced insulin resistant 3T3 L1 adipocytes, test compound 10 μM/mL, vehicle = 1.0, cut off 1.50 fold, read-out: Fold activity (fold activity over vehicle); for % of Rosiglitazone (comparison with Rosiglitazone): insulin resistant 3T3 L1 adipocytes, test compound 10 μM vs Rosiglitazone 0.1 μM
Procedure: The assay was designed as in the reference, British Journal of Pharmacology, 130, 351-58, 2000, the disclosure of which is incorporated by reference for the teaching of the assay. The solution of test compound (10 μM/mL) was prepared in DMSO. […] Differentiation into adipocytes was induced by the known methods as described below. (See, also, J. Biol. […] 3T3 L1 fibroblasts were seeded in 24- or 6-well plates at a density of 0.5−2×10^4 cells/well and were allowed to reach maximal confluency. The confluent fibroblasts were exposed to culture medium for 2 days. […] The mature adipocytes were exposed to dexamethasone, 100 nM added in ethanol, in culture medium and incubated for 2 days. […] The test compound was also present during this period. After 3-4 hours, the medium was aspirated and replaced with Kreb's Ringer phosphate (KRP) buffer at pH 7.4 and with human/porcine insulin, 200 nM. The cells were incubated for 30 minutes at 37° C. […] After exactly 5 minutes, the plates were transferred to ice trays and medium was rapidly aspirated. The cell layer was washed twice with ice-cold phosphate buffered saline, (PBS), pH 7.4. […] Non-specific glucose uptake was assayed in wells exposed to cytochalasin B, inhibitor of glucose transport. […] Statistical analysis was performed using unpaired t-test.

Mouse PPARγ = biological target: T1, Mouse PPARγ (Mus musculus, UniProt P37238); test: Mouse PPARγ assay (TransAM PPARγ ELISA, 3T3-L1 fibroblasts); format: cell-based; conditions: test compound 50 μM, 72 hrs
T1 construct: endogenous in cells; host or cells: 3T3-L1 fibroblasts
T1 sequence (P37238 1-505): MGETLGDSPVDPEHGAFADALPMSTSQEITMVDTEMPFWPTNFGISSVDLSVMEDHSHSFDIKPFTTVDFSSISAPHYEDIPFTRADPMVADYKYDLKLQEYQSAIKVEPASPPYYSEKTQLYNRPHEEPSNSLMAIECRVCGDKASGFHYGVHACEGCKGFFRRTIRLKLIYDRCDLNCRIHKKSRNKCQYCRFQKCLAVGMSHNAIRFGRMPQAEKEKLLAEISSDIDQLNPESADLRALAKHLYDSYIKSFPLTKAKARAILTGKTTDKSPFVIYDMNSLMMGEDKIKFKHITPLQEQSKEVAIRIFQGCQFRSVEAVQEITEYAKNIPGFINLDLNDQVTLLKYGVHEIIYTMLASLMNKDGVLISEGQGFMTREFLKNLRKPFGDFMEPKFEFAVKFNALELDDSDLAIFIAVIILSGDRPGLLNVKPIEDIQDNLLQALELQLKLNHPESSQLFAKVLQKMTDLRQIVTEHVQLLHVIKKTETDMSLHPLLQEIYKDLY
Procedure: The assay was designed as in the reference, Blood, 104(5), 1361-8, 2004, the disclosure of which is incorporated by reference for the teaching of the assay.
3T3-L1 fibroblasts were seeded in 6-well plates at a density of 4×10^4 cells/well and cultured in DMEM containing 10% calf serum. After 4-5 days, when the cells become confluent, each of test compound was added (from a 20 mM stock in DMSO) to the final concentration of 50 μM in DMEM supplemented with 10% FCS. […] The plates were incubated for 72 hrs at 37° C. in a CO2 incubator with fresh medium containing test substances added after first 48 hrs. After 72 hrs, the medium was removed; the cell layer was washed and processed for the PPARγ assay as per the instruction of the manufacturer (Active Motif, North America, California, USA). PPARγ activation was determined using 96-well ELISA assay as per the instruction manual (TransAM PPARγ. Active Motif, Cat 0.40196). Assay Readout was absorbance output from spectrophotometer for the mouse PPARγ assay. Luminescence data output was recorded for the human PPARγ assay.

[2] = test system: genetically diabetic db/db BL/6J mice; test: Screening in db/db BL/6J mice: reduction of plasma glucose levels; format: in vivo; conditions: 10 days
Procedure: The protocol was designed as in references. • 1.
The screening of compounds was based on their ability to reduce the plasma glucose levels in genetically diabetic db/db BL/6J mice.
Male db/db mice (obtained from the Animal House of Nicholas Piramal Research Centre, Goregaon, Mumbai, India) were used for this study (body weight in the range of 30-40 g and age is 6-8 weeks) and were kept eight per cage in individually ventilated cages at controlled temperature (22±1° C.) and humidity (45±5%). Food and water were provided ad libitum during their laboratory stay, except for four hours fasting prior to blood sample collection. 12 hours light and dark cycle was followed during the whole study period.
After 4 hours fasting blood samples were collected from mice. Mice showing plasma glucose levels between 300 to 500 mg/dl were divided in groups (8-10 per group) such that the mean plasma glucose levels and variation within the group, for each group, is nearly same. After grouping, mice in respective groups received treatment with 0.5% CMC vehicle, standard compound or test compounds for 10 days.
After 4 hours fasting, mice were anaesthetized using isoflurane (inhalation anesthetic), and blood samples were collected through the retro orbital plexus. Collected blood samples were centrifuged at 7000 rpm for 10 minutes at 4° C.; Separated plasma was used for estimation of plasma glucose using diagnostic kits (Diasys, Germany). Plasma glucose levels of treated groups were normalized with control group using the following formula, which accounted for the changes in control group.
Formula used for normalization was *:{1−[…]}×100.

Cc1ccc(S(=O)(=O)Nc2cnc(Oc3cc4ccccc4cn3)c(Cl)c2)cc1Cl [Example 3, 3-Chloro-N-(5-chloro-6-(isoquinolin-3-yloxy)pyridin-3-yl)-4-methylbenzenesulfonamide]
fold induction at 10 µM [1]: 2.3 ± 0.16
% of Rosiglitazone (comparison with Rosiglitazone) [1]: 52 ± 6.5%

N#Cc1ccc(S(=O)(=O)Nc2cnc(Oc3cc4ccccc4cn3)c(Cl)c2)cc1 [Example 5, N-(5-Chloro-6-(isoquinolin-3-yloxy)pyridin-3-yl)-4-cyanobenzenesulfonamide]
fold induction at 10 µM [1]: 2.41 ± 0.12
% of Rosiglitazone (comparison with Rosiglitazone) [1]: 55.1 ± 4.8%

O=S(=O)(Nc1cnc(Oc2cc3ccccc3cn2)c(Cl)c1)c1ccc(Cl)cc1F [Example 13, 4-Chloro-N-(5-chloro-6-(isoquinolin-3-yloxy)pyridin-3-yl)-2-fluorobenzenesulfonamide]
fold induction at 10 µM [1]: 1.4 ± 0.07
% of Rosiglitazone (comparison with Rosiglitazone) [1]: 19.5 ± 3.51%

O=S(=O)(Nc1cnc(Oc2cc3ccccc3cn2)c(Cl)c1)c1ccc(F)cc1Cl [Example 15, 2-Chloro-N-(5-chloro-6-(isoquinolin-3-yloxy)pyridin-3-yl)-4-fluorobenzenesulfonamide]
PPARγ activity (% of rosiglitazone) (Mouse PPARγ): 0%
fold induction at 10 µM [1]: 1.7 ± 0.02
% of Rosiglitazone (comparison with Rosiglitazone) [1]: 45.25 ± 1.04%

Cc1ccc(S(=O)(=O)Nc2cnc(Oc3cc4ccccc4cn3)c(Cl)c2)cc1 [Example 16, N-(5-Chloro-6-(isoquinolin-3-yloxy)pyridin-3-yl)-4-methylbenzenesulfonamide]
PPARγ activity (% of rosiglitazone) (Mouse PPARγ): 18.85%
fold induction at 10 µM [1]: 1.6 ± 0.13
% of Rosiglitazone (comparison with Rosiglitazone) [1]: 38.47 ± 7.98%

O=S(=O)(Nc1cnc(Oc2cc3ccccc3cn2)c(Cl)c1)c1ccc(Cl)c(Cl)c1 [Example 17, 3,4-Dichloro-N-(5-chloro-6-(isoquinolin-3-yloxy)pyridin-3-yl)benzenesulfonamide]
PPARγ activity (% of rosiglitazone) (Mouse PPARγ): 12.57%
fold induction at 10 µM [1]: 1.26 ± 0.02
% of Rosiglitazone (comparison with Rosiglitazone) [1]: 21.20 ± 1.5%

O=S(=O)(Nc1cnc(Oc2cc3ccccc3cn2)c(Cl)c1)c1ccc(OC(F)(F)F)cc1 [Example 18, N-(5-Chloro-6-(isoquinolin-3-yloxy)pyridin-3-yl)-4-(trifluoromethoxy)benzene-sulfonamide]
fold induction at 10 µM [1]: 1.77 ± 0.1
% of Rosiglitazone (comparison with Rosiglitazone) [1]: 65%

COc1ccc(OC)c(S(=O)(=O)Nc2cnc(Oc3cc4ccccc4cn3)c(Cl)c2)c1 [Example 19, N-(5-Chloro-6-(isoquinolin-3-yloxy)pyridin-3-yl)-2,5-dimethoxybenzenesulfonamide]
fold induction at 10 µM [1]: 1.67 ± 0.13
% of Rosiglitazone (comparison with Rosiglitazone) [1]: 50 ± 10.12%

O=S(=O)(Nc1cnc(Oc2cc3ccccc3cn2)c(Cl)c1)c1ccc(C(F)(F)F)cc1Cl [Example 20, 2-Chloro-N-(5-chloro-6-(isoquinolin-3-yloxy)pyridin-3-yl)-4(trifluoromethyl)benzene sulfonamide]
fold induction at 10 µM [1]: 2.4 ± 0.68
% of Rosiglitazone (comparison with Rosiglitazone) [1]: 36.7 ± 0.96%

COc1ccc(S(=O)(=O)Nc2cnc(Oc3cc4ccccc4cn3)c(Cl)c2)cc1OC [Example 22, N-(5-Chloro-6-(isoquinolin-3-yloxy)pyridin-3-yl)-3,4-dimethoxybenzenesulfonamide]
fold induction at 10 µM [1]: 1.76 ± 0.58
% of Rosiglitazone (comparison with Rosiglitazone) [1]: 15.8 ± 1.8%

COc1ccc(S(=O)(=O)Nc2cnc(Oc3cc4ccccc4cn3)c(Cl)c2)cc1 [Example 24, N-(5-Chloro-6-(isoquinolin-3-yloxy)pyridin-3-yl)-4-methoxybenzenesulfonamide]
fold induction at 10 µM [1]: 1.8 ± 0.32
% of Rosiglitazone (comparison with Rosiglitazone) [1]: 46.2 ± 23.8%
Normalization with control (plasma glucose) ([2]; 150 mpk od): Inactive

O=S(=O)(Nc1cnc(Oc2cnc3ccccc3c2)c(Cl)c1)c1ccc(Cl)cc1Cl [Example 27, 2,4-Dichloro-N-(5-chloro-6-(quinolin-3-yloxy)pyridin-3-yl)benzenesulfonamide]
fold induction at 10 µM [1]: 2.01 ± 0.23
% of Rosiglitazone (comparison with Rosiglitazone) [1]: 57 ± 15.64%

Cc1ccc(S(=O)(=O)Nc2cnc(Oc3cnc4ccccc4c3)c(Cl)c2)cc1 [Example 28, N-(5-Chloro-6-(quinolin-3-yloxy)pyridin-3-yl)-4-methylbenzenesulfonamide]
fold induction at 10 µM [1]: 2.6 ± 0.17
% of Rosiglitazone (comparison with Rosiglitazone) [1]: 71.77 ± 7.48%

O=S(=O)(Nc1cnc(Oc2cnc3ccccc3c2)c(Cl)c1)c1ccc(Cl)c(Cl)c1 [Example 29, 3,4-Dichloro-N-(5-chloro-6-(quinolin-3-yloxy)pyridin-3-yl)benzenesulfonamide]
fold induction at 10 µM [1]: 2.01 ± 0.09
% of Rosiglitazone (comparison with Rosiglitazone) [1]: 76 ± 6.11%

COc1ccc(S(=O)(=O)Nc2cnc(Oc3cnc4ccccc4c3)c(Cl)c2)cc1OC [Example 30, N-(5-Chloro-6-(quinolin-3-yloxy)pyridin-3-yl)-3,4-dimethoxybenzenesulfonamide]
PPARγ activity (% of rosiglitazone) (Mouse PPARγ): 8.18%
fold induction at 10 µM [1]: 1.84 ± 0.02
Normalization with control (plasma glucose) ([2]; 50 mpk bid): 76.2 ± 19.2

O=S(=O)(Nc1cnc(Oc2cnc3ccccc3c2)c(Cl)c1)c1ccc(C(F)(F)F)cc1Cl [Example 33, 2-Chloro-N-(5-chloro-6-(quinolin-3-yloxy)pyridin-3-yl)-4-(trifluoromethyl)benzene-sulfonamide]
fold induction at 10 µM [1]: 2.58 ± 0.11
% of Rosiglitazone (comparison with Rosiglitazone) [1]: 68.59 ± 4.81%

O=S(=O)(Nc1cnc(Oc2cnc3ccccc3c2)c(Cl)c1)c1ccc(F)cc1F [Example 34, N-(5-Chloro-6-(quinolin-3-yloxy)pyridin-3-yl)-2,4-difluorobenzenesulfonamide]
PPARγ activity (% of rosiglitazone) (Mouse PPARγ): 8.17%
fold induction at 10 µM [1]: 1.7 ± 0.08
% of Rosiglitazone (comparison with Rosiglitazone) [1]: 43.59 ± 4.77%
Normalization with control (plasma glucose) ([2]; 50 mpk bid): 57.2 ± 19.1

O=S(=O)(Nc1cnc(Oc2cnc3ccccc3c2)c(Cl)c1)c1ccc(F)cc1 [Example 35, N-(5-Chloro-6-(quinolin-3-yloxy)pyridin-3-yl)-4-fluorobenzenesulfonamide]
fold induction at 10 µM [1]: 2.44 ± 0.08
% of Rosiglitazone (comparison with Rosiglitazone) [1]: 62.36 ± 3.51%

O=S(=O)(c1ccc(Cl)cc1Cl)N(c1cnc(Oc2cnc3ccccc3c2)c(Cl)c1)S(=O)(=O)c1ccc(Cl)cc1Cl [Example 45, 2,4-Dichloro-N-[(2,4-dichlorophenyl)sulfonyl]-N-[5-chloro-6-(quinolin-3-yloxy)pyridin-3-yl]-benzenesulfonamide]
fold induction at 10 µM [1]: 2.13 ± 0.04
% of Rosiglitazone (comparison with Rosiglitazone) [1]: 59.5 ± 2.26%

O=S(=O)(Nc1cnc(Oc2ccc3ncccc3c2)c(Cl)c1)c1ccc(F)cc1F [Example 48, N-(5-Chloro-6-(quinolin-6-yloxy)pyridin-3-yl)-2,4-difluorobenzenesulfonamide]
fold induction at 10 µM [1]: 1.82 ± 0.13
% of Rosiglitazone (comparison with Rosiglitazone) [1]: 36.7 ± 7.3%
